Test results published in patent US9023985B2, “Glucagon composition” (Arecor Ltd., priority 2010, dated 2015).
Blank lines part the entries; values can stand above or below the molecule they belong to.

Key:
[1] = Stability of glucagon in surfactant solutions at room temperature (RP-HPLC, gel formation); format: physicochemical; conditions: for Changes in the native form of glucagon (RP-HPLC) / Size of the native glucagon peak (RP-HPLC): glucagon dissolved with the surfactant, incubation at room temperature for days
From the text: […]. In contrast, the size of the native peak diminished in the case of CHAPS to <10%) and in the case of TWEEN® 20 (to about 60%).
Formulating at pH>8 minimized the gel formation.

[2] = Visual assessment of glucagon formulations with different tonicity modifiers, 50° C. incubation; conditions: glucagon 1 mg/ml, 5 mM acetate, 0.075% benzethonium chloride, pH 5.5
Method: In some cases, the composition contained a specified concentration of an antioxidant. The effect of the nature and the concentration of the tonicity modifier on the physical stability (i.e., gel formation and/or aggregation) was determined by visual assessment following storage.
In the first experiment, the effects of mannitol and 1,2-propanediol as tonicity modifiers modifiers were compared at 50° C.
In another experiment, the effects of mannitol and glycerol as tonicity modifiers were compared at 50° C.
In another experiment, the effects of mannitol and trehalose as tonicity modifiers were compared at 50° C.

[3] = Visual assessment of glucagon formulations with and without phenol, 50° C. incubation; format: physicochemical; conditions: glucagon 1 mg/ml
Method: The pH of both formulations was adjusted to 5.5. […] The appearance of all formulations was noted shortly after preparation and then following storage at 50° C. for specified periods of time.

[4] = 0 days, 1.3 mM butylated hydroxytoluene
[5] = 6 weeks, 1.3 mM butylated hydroxytoluene
[6] = 50° C. for up to 6 weeks, 5 mM methionine
[7] = 6 days, 1.3 mM butylated hydroxytoluene

Changes in the native form of glucagon (RP-HPLC) [1]: no significant changes
Molecule: Benzalkonium chloride

Size of the native glucagon peak (RP-HPLC) [1]: about 60%
Molecule: TWEEN ® 20

Changes in the native form of glucagon (RP-HPLC) [1]: no significant changes
Molecule: CC(C)(C)CC(C)(C)c1ccc(OCCOCC[N+](C)(C)Cc2ccccc2)cc1 [Benzethonium chloride]

Molecule: CC(O)CO (stereo not drawn) [1,2-propanediol]
Onset of aggregation and gel formation compared with mannitol ([2]; 50° C.): much earlier onset of aggregation and gel formation

Molecule: CCCCCCCCCCCCCCCC[N+](C)(C)C.[Br-] [Cetrimide, cetyl trimethylammonium bromide]
Changes in the native form of glucagon (RP-HPLC) [1]: no significant changes

Molecule: Sodium deoxycholate
Changes in the native form of glucagon (RP-HPLC) [1]: no significant changes
Gel formation of dissolved glucagon ([1]; prepared at pH 7.5, incubation at room temperature): tendency to form gels

Visual assessment (50° C. incubation), extent of visible precipitation [2, 4]: 1
Visual assessment (50° C. incubation), extent of visible precipitation [2, 5]: 1
Visual appearance after incubation [2, 6]: remained as a clear liquid
Visual assessment (50° C. incubation), extent of visible precipitation [2, 7]: 1
Molecule: OC[C@@H](O)[C@@H](O)[C@H](O)[C@H](O)CO [Mannitol (250 mM), Mannitol]

Molecule: C[C@H](CCC(=O)NCCC[N+](C)(C)CCCS(=O)(=O)[O-])[C@H]1CC[C@H]2[C@@H]3[C@H](O)C[C@@H]4C[C@H](O)CC[C@]4(C)[C@H]3C[C@H](O)[C@]12C [CHAPS]
Size of the native glucagon peak (RP-HPLC) [1]: < 10%

Molecule: Oc1ccccc1 [phenol]
Gel formation and/or aggregation on incubation [3]: delay aggregation and gel formation considerably farther

Visual assessment (50° C. incubation), extent of visible precipitation [2, 4]: 1
Visual assessment (50° C. incubation), extent of visible precipitation [2, 5]: 2
Visual appearance after incubation ([2]; 50° C. for 6 weeks, 1.3 mM butylated hydroxytoluene): signs of precipitation
Visual assessment (50° C. incubation), extent of visible precipitation [2, 7]: 1
Molecule: OCC(O)CO [Glycerol (250 mM), Glycerol]

Visual appearance after incubation [2, 6]: remained as a clear liquid
Molecule: OC[C@H]1O[C@H](O[C@H]2O[C@H](CO)[C@@H](O)[C@H](O)[C@H]2O)[C@H](O)[C@@H](O)[C@@H]1O [trehalose (250 and 500 mM), trehalose]
